Results from patent US11903917B2, “MEK-inhibitor for the treatment of viral and bacterial infections” (priority 2017, dated 2024).

Columns and labels:
[1] = test system: A549 cells infected with influenza virus (IV) and S. aureus 6850; experiment: Example 8: cytopathic effect in A549 cells infected with influenza virus and S. aureus 6850, light microscopy; assay type: cell-based, human; settings: 10 μM, until 24 h p.i., super-infection
Method: Influenza virus (IV) infection results in enhanced expression of antiviral cytokines, most importantly type I IFNs that activate critical downstream antiviral responses and may also potentiate subsequent bacterial infections. […] Specifically, A549 cells were pre-treated for 1 h with 10 μM of the specific MEK-inhibitor PD-0184264 or DMSO as solvent control. Afterwards, cells were rinsed with PBS and infected with influenza virus (IV) (MOI as indicated) for 30 min at 37° C., 5% CO2. Subsequently, cells were washed with PBS and infected with S. aureus 6850 (MOI as indicated) in the presence or absence of the inhibitor for 3 h. To avoid bacterial over-growth, an antibiotic wash step with lysostaphin (2 μg/mL) was performed for 20 min at 37° C. to remove not-internalized bacteria. Then, cells were washed once and were further incubated until 24 h p.i. in the presence of the inhibitor or solvent. At the end of the incubation period, the cell monolayer was analyzed via light microscopy.

[2] = test system: MRSA strain USA300; experiment: Over-night treated culture, bacterial titers (CFU/ml) and OD600; assay type: cell-based, Staphylococcus aureus
[3] = test system: S. aureus 6850; assay type: cell-based, Staphylococcus aureus
[4] = test system: H1N1 pdm09; experiment: Example 11: lung virus titration assay in infected mice; assay type: in vivo, C57BL/6 mice; settings: for virus titer in the lung, control set to 100%: 24 h after infection
Method: (A) After H1N1 pdm09 infection female C57BL/6 mice were treated with either 2.8, 8.4 or 25 mg/kg PD-0184264 (left side) or with 25, 75 or 150 mg/Kg […] ([…]) the oral route. 24 hrs after infection the animals were killed and lung was taken to prepare a 10% suspension. Virus titer was determined using the standard method. Virus titer of mice treated with the two MEK-inhibitors were compared to virus titer of mice treated with solvent (Control) alone. Virus tier in the lungs of control mice was set to 100% (black bar). Graphpad Prism 7 software was used to illustrate both figures.
For oral application of 25 mg/kg, 2.5 mg of PD-0184264 were dissolved in 50 μl DMSO (Sigma-Aldrich, Germany) and further diluted with 0.15 ml Cremophor EL (Merck-Millipore, Germany) and 0.8 ml PBS (Gibco, Germany). For application of 8.4 mg/kg and 2.8 mg/kg, 0.84 mg or 0.28 mg PD-0184264 were dissolved with 50 μl DMSO (Sigma-Aldrich, Germany) and further diluted with 0.15 ml Cremophor EL/0.8 ml PBS.
Eight week old female C57Bl/6 mice (Charles River Laboratories, Germany) with a body weight of 21.0-24.0 g at administration were used for antiviral studies. The animals were normally fed. Drinking water was available ad libitum.
Drugs were administrated using a single dosing on test day 1 by oral gavage. The application speed was 15 s per dose with an administration volume of 200 μl.
Mice were sacrificed 24 h post infection and lungs were weighed, transferred into a Lysing Matrix D tube (MP Bio) and BSS was applied in an amount of the 10-fold volume of the lung. Organs were shredded using the FastPrep FP 120 (Savant). To remove the cell debris the homogenates were centrifuged for 15 min at 2000 rpm and the supernatant collected. The determination of virus titer in homogenates was performed using the AVICEL® plaque assay as described previously (Haasbach et al. 2011, Mastrosovich et al. 2006).

[5] = Pharmacokinetics, drug in plasma after i.v. or per os application; assay type: in vivo, NMRI mice
Method: Blood was collected at 15 min, 30 min, 1 h, 2 h, 4 h, 6 h, 8 h and 24 h (test day 2) after administration and plasma was analysed for the presence of the drug. […] Blood was collected at 15 min, 30 min, 1 h, 2 h, 4 h, 6 h, 8 h and 24 h (test day 2) after administration and plasma was analysed for the presence of the drug. Each data point represents the mean value of three plasma samples. Graphpad Prism 7 software was used to illustrate both figures.
34.88 mg PD-0184264 were dissolved in 0.075 ml DMSO and further diluted with 0.225 ml Cremophor EL/2.7 ml PBS. […] 81.0 mg PD-0184264 were dissolved in 0.2 ml DMSO/0.6 ml Cremophor EL/3.2 ml PBS.
Eight week old male NMRI mice (Charles River Laboratories, Germany) with a body weight of 23.9-36.5 g at administration were used for pharmacokinetic studies. The animals were normally fed. Drinking water was available ad libitum.
Experiments were performed at LPT GmbH (Hamburg, Germany). Sufficient whole blood—taken under isoflurane anaesthesia—was collected to obtain at least 2×100 μl Li-Heparin plasma of 3 animals per group and time-point at the following times: 0 (predose), 15 min, 30 min, 1 h, 2 h, 4 h, 6 h, 8 h and 24 h (test day 2) after administration. The whole blood samples were instantly cooled using an Iso-Therm-Rack system (Eppendorf AG, Germany) until centrifugation within 0.5 hours after withdrawal. Immediately after centrifugation, the samples were stored at −20° C. until further analysis. Plasma analysis was performed using standard procedures at Prolytic GmbH (Frankfurt, Germany).
Drugs were either administrated using a single dosing on test day 1 by oral gavage or by Intravenous bolus injection into a tail vein. The Injection speed was 15 s/dose with an administration volume of 200 μl.

[6] = test system: A549 cells; experiment: A549 cell viability (trypan blue) and LDH release; assay type: cell-based, human; settings: 1-100 μM, 24 and 48 hours
Method: To rule out that the reduction in viral and intracellular bacterial replication was a result of a cytotoxic effect of PD-0184264 on A549 cells, cell viability in presence of increasing concentrations was monitored for 24 and 48 hours. Additionally, a LDH-Assay was performed to determine membrane rupture due to inhibitor treatment. […] A549 cells were treated for 24 (as shown in FIGS. 15A and C) or 48 (as shown in FIGS. 15B and D) hours with increasing concentrations of PD-0184264 (1, 5, 10, 20, 50 or 100 μM). After the incubation times, supernatants were taken for measurement of LDH release (shown in FIGS. 15C, D) using the CytoSelect LDH Cytotoxicity Assay Kit according to the manufacturer's instructions. Additionally, viable cells were counted by staining with trypan blue. Cell viability was normalized to DMSO-treated cells and is shown as % viability. […] Statistical significance was calculated by one-way ANOVA followed by Dunnett's multiple comparisons test (*p<0.05; **p<0.01; […]***p<0.001).

[7] = test system: S. aureus; experiment: Resistance development during 17 days of constant treatment; assay type: cell-based, Staphylococcus aureus; settings: 24 h cycles repeated for 17 days

O=C(O)c1ccc(F)c(F)c1Nc1ccc(I)cc1Cl [PD-0184264, 2-(2-chloro-4-iodophenylamino)-N-3,4-difluoro benzoic acid]
cytopathic effect (CPE) [1]: completely abolished
reduction of bacterial growth (FIG. 4) ([2]; 10 μM, over night, MRSA USA300): significant reduction of growth
reduction of bacterial titers ([2]; 20 μM, over night, MRSA USA300, CFU/ml): 1.5-2 orders of a magnitude
effect on bacterial titers (CFU/ml) ([2]; over night treatment, MRSA USA300, vs solvent): very strong reduction in bacterial load
intracellular bacterial titers [3]: reduced intracellular bacterial titers
virus titer in the lung, control set to 100% ([4]; 2.8 mg/kg oral): approx. 70%
virus titer in the lung, control set to 100% ([4]; 8.4 mg/kg oral): approx. 20%
virus titer in the lung, control set to 100% ([4]; 25 mg/kg oral): approx. 10%
reduction of the virus titer in the lung ([4]; 25 mg/kg, FIG. 18): at least 90%
fold lower concentration needed to achieve a similar effect as 150 mg/kg CI-1040 ([4]; oral): 6 fold
drug in plasma at eight hours ([5]; 150 mg/kg per os application): still a high concentration
AUC ([5]; mouse, plasma, iv, male NMRI mice, route of this value not stated (75 mg/kg i.v. / 150 mg/kg per os)): 1950 µg·h/mL
cell toxicity (cell viability, LDH release) [6]: does not induce cell toxicity
resistance development in S. aureus [7]: did not induce resistance
